The text below walks through data of the supplement of paper PMC10290057.

Counter-ions that a name gives are not always drawn.

Test [1] relates to HCT116. Description: AC50 cell viability (CellTiter-Glo); higher = less potent. As to conditions: 48 h. A general note: In ATP-based viability assays light output follows the ATP content of the culture.
Test [2] relates to HCT116. Kind of test: efficacy (fitted maximal change in viability relative to DMSO control); higher = less cytotoxic (negative = loss of viability). As to conditions: 48 h.
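Wherever AC50 cell viability (CellTiter-Glo) is given: HCT116 colorectal carcinoma cells screened at five concentrations per compound, luminescent viability scaled between DMSO wells and empty wells on each plate, curves fitted per compound.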
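Wherever efficacy (fitted maximal change in viability relative to DMSO control) is given: Luminescence-based viability readout, five doses per compound, normalized against on-plate DMSO and empty-well controls, followed by dose-response curve fitting for every drug.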

In the test with HCT116 [1], `CC(C)n1ncnc1-c1cn2c(n1)-c1ccc(O[C@@H](C)C(N)=O)cc1OCC2` [GDC-0326] displayed an AC50 cell viability of 6.61 µM. The efficacy with HCT116 [2] was -72.2%.
The compound `CCNC(=O)Nc1ccc(-c2nc3c(c(N4CCOC[C@@H]4C)n2)CCN(C2COC2)C3)cc1` [GDC-0349] showed an AC50 cell viability in the test with HCT116 [1] of 3.32 µM. Besides, the efficacy in the test on HCT116 [2] was -46.9%.
In the test on HCT116 [1], `O=C(NOCCO)c1ccc2cncn2c1Nc1ccc(I)cc1F` [GDC-0623] yielded an AC50 cell viability of 11.8 µM. Besides, the efficacy in the test with HCT116 [2] is -43.9%.
Taken in the same sequence, the figures for `Cc1c(CN2CCN(C(=O)[C@H](C)O)CC2)sc2c(N3CCOCC3)nc(-c3cnc(N)nc3)nc12` [GDC-0980] were 0.525 µM and -57.1%.
For the compound `CN(C)C1=C(Br)C=C(C=C1)C\2NC3=C(\C4=C2C(=O)CC(C)(C)C4)C5=CC=CC=C5C=C3` (stereo not given) [GLS-968], in the test with HCT116 [1], the AC50 cell viability is 9.34 µM. The efficacy in the test with HCT116 [2] was -31.2%.
Taken in the same sequence, the figures for `N#C/N=C(\NCCCCCCOc1ccc(Cl)cc1)Nc1ccncc1` [GMX-1778] were 0.0132 µM and -93.3%.
In the test on HCT116 [1], `COC1(c2sc3c(N4CCOCC4)nc(-c4cnc(N)nc4)nc3c2C)COC1` [GNE-317] came in with an AC50 cell viability of 0.59 µM. Moreover, the efficacy in the test on HCT116 [2] is -58.4%.
For the compound `Cc1c(CN2CCN([S+](C)(=O)[O-])CC2)sc2c(N3CCOCC3)nc(-c3cnc(N)nc3)nc12` [GNE-477], the AC50 cell viability in the test with HCT116 [1] was 0.59 µM. In addition, the efficacy in the test with HCT116 [2] was -57.8%.
`Cc1nc(N)ncc1-c1nc(N2CCOCC2)c2sc(C(C)(C)O)cc2n1` [GNE-490] displayed an AC50 cell viability in the test with HCT116 [1] of 2.63 µM. Also, in the test on HCT116 [2], the efficacy was -66.6%.
Taken in the same sequence, the figures for `CC(C)(O)c1cc2nc(-c3cnc(N)nc3)nc(N3CCOCC3)c2s1` [GNE-493] were 0.833 µM and -55.2%.
Take `O=C(NCc1ccc([S+](=O)([O-])c2cccc(C(F)(F)F)c2)cc1)c1cnc2[nH]ncc2c1` [GNE-618]: the AC50 cell viability with HCT116 [1] came out at 0.0166 µM. The efficacy in the test on HCT116 [2] is -90.4%.
Taken in the same sequence, the figures for `N#Cc1ccnc(Nc2cc(C3CCN(C4COC4)CC3)cc(N3CCC(F)(F)C3)n2)c1` [GNE-3511] were 0.833 µM and -77.1%.
Turning to `CNc1nc(Nc2cnn([C@H]3CCN(C4COC4)C[C@@H]3F)c2Cl)ncc1C(F)(F)F` [GNE-9605], the AC50 cell viability with HCT116 [1] worked out at 4.68 µM. Also, in the test with HCT116 [2], the efficacy was -51.4%.
`NC(=O)c1cccc(-c2cc(Nc3ccc(OC(F)(F)F)cc3)ncn2)c1` [GNF-2] gave an AC50 cell viability with HCT116 [1] of 18.6 µM. Also, the efficacy with HCT116 [2] is -97.5%.
Taken in the same sequence, the figures for `Cc1ccc(Nc2ncc3c(n2)N(C)C(=O)N(c2cc(NC(=O)c4cccc(C(F)(F)F)c4)ccc2C)C3)cn1` [GNF-7] were 0.0332 µM and -69.3%.
The corresponding values for `Cc1ccc(NC(=O)Nc2cc(C(F)(F)F)ccc2F)cc1Nc1ccc2c(c1)NC(=O)/C2=C\c1ccc[nH]1` [GNF-5837] are 14.8 µM and -97.5%.
Regarding `NC1=NC(=C(C#N)C(=N1)N)N[C@@H](C2CC2)\C3=N\C4=C(C(=CC=C4F)Cl)C(=O)N3C5=CC=CN=C5` [GS-9901], the AC50 cell viability in the test on HCT116 [1] worked out at 18.6 µM. Further, the efficacy in the test with HCT116 [2] was -71%.
The corresponding values for `O=C/1NC(=O)C(=C1C2=CN=C3C=CC=C[N]23)/C4=C[N]5CCN(CC6=C5C4=CC=C6)C(=O)N7CCOCC7` [GSK3 Inhibitor] are 9.34 µM and -85.7%.
Taken in the same sequence, the figures for `CC\1=C(C(\N=C(/N1)C2=CC(=NC=C2)Cl)C3=C(F)C=C(Cl)C=C3)/C(=O)NC4=C(F)C=C5[NH]N=CC5=C4` (stereo not given) [GSK-25] were 29.5 µM and -97.8%.
Taken in the same sequence, the figures for `CCCC\1=C(/CNC(=O)C2=CC(=CC3=C2C=N[N]3C(C)C)C4=CC(=NC=C4)N5CCN(C)CC5)C(=O)NC(=C1)\C` [GSK-343] were 23.5 µM and -101%.
For `COc1cc(C(=O)N2CC[C@@H](O)[C@@H](N)C2)cc2nc(-c3cc4ccccc4n3CC3CC3)n(C)c12` [GSK-484], the AC50 cell viability with HCT116 [1] was found to be 23.5 µM. For the same compound, in the test on HCT116 [2], the efficacy is -94.1%.
As for `Cc1cc(C)c(C/N=C(\O)c2cc(-c3ccc(N4CCN(C)CC4)nc3)cc3c2c(C)cn3C(C)C)c(O)n1` [GSK-503], the AC50 cell viability with HCT116 [1] was 23.5 µM. Besides, the efficacy in the test on HCT116 [2] is -103%.
The corresponding values for `O=C1NC(=O)/C(=C/c2ccc3nccc(-c4ccncc4)c3c2)S1` [GSK-615] are 0.934 µM and -82.3%.
The corresponding values for `CC(C)(C)OC(=O)CN(Cc1ccc(Cl)cc1)Cc1ccc([N+](=O)[O-])s1` [GSK-4112] are 20.9 µM and -40.6%.
Taken in the same sequence, the figures for `COc1ccccc1C(=O)Nc1cc2c(cc1N1CCNC[C@H]1C)n(C)c(=O)n2C` [GSK-6853] were 16.6 µM and -63.8%.
In the test with HCT116 [1], `CCOC(=O)CCNc1cc(N2CCc3ccccc3CC2)nc(-c2ccccn2)n1` [GSK-J4] yielded an AC50 cell viability of 2.95 µM. The efficacy in the test with HCT116 [2] was -90.6%.
Taken in the same sequence, the figures for `COc1ccc(COc2ccc(Cc3cnc(N)nc3N)cc2OC)cc1` [GW-2580] were 14.8 µM and -96.7%.
The corresponding values for `Cc1ccc(C(=O)Nc2ccc(CN3CCN(C)CC3)c(C(F)(F)F)c2)cc1C#Cc1cnc2[nH]ncc2c1` [GZD-824] are 0.934 µM and -121%.
Turning to `C[C@]\12CC[C@H](O)CC1=C/CC3C2CC[C@@]\4(C)C3C\C=C4[N]5C=NC6=C5C=CC=C6` (stereo not given in full) [Galeterone], the AC50 cell viability in the test with HCT116 [1] was found to be 5.9 µM. The efficacy with HCT116 [2] was -43.8%.
The corresponding values for `Cc1cc(Nc2cc(CN3CCOCC3)c3nc(C)c(Cc4ccc(Cl)cc4F)n3n2)[nH]n1` [Gandotinib] are 5.9 µM and -110%.
As to `CC(C)C1=C(O)C=C(O)C(=C1)C/2=N/NC(=O)N2C3=CC4=C(C=C3)[N](C)C=C4` [Ganetespib (STA-9090)], the AC50 cell viability in the test with HCT116 [1] is 0.0742 µM. In addition, in the test with HCT116 [2], the efficacy was -62.3%.
`CCNCc1nc2c(N)nc3ccccc3c2n1CC(C)(C)O` [Gardiquimod] had an AC50 cell viability in the test on HCT116 [1] of 16.6 µM. In addition, in the test with HCT116 [2], the efficacy was -62%.
The corresponding values for `CN(C)C1CCN(C(=O)c2ccc(NC(=O)Nc3ccc(-c4nc(N5CCOCC5)nc(N5CCOCC5)n4)cc3)cc2)CC1` [Gedatolisib] are 0.148 µM and -69.6%.
Consider `NC/1=N/C(=O)N(/C=C1)[C@@H]2O[C@H](CO)[C@@H](O)C2(F)F` [Gemcitabine], for which the AC50 cell viability in the test with HCT116 [1] was 0.0263 µM. The efficacy in the test on HCT116 [2] was -71.9%.
The corresponding values for `CCc1nc(C(N)=O)c(Nc2ccc(N3CCC(N4CCN(C)CC4)CC3)c(OC)c2)nc1NC1CCOCC1` [Gilteritinib] are 1.66 µM and -65.1%.
In the test with HCT116 [1], `CCN(CC)Cc1ccc2cc(COC(=O)Nc3ccc(C(=O)NO)cc3)ccc2c1` [Givinostat hydrochloride] returned an AC50 cell viability of 0.263 µM. Also, in the test with HCT116 [2], the efficacy was -88.8%.
The corresponding values for `COCCNCc1ccc(-c2cc3nccc(Oc4ccc(NC(=S)NC(=O)Cc5ccc(F)cc5)cc4F)c3s2)nc1` [Glesatinib] are 6.61 µM and -80.1%.
With `Cc1cncc2cccc([S+](=O)([O-])N3CCCN(C(=O)CN)C[C@@H]3C)c12` [Glycyl-H-1152], the AC50 cell viability in the test with HCT116 [1] came to 5.9 µM. The efficacy in the test with HCT116 [2] was -35.8%.
`Cn1c2ccccc2c2c3c(c4c5ccccc5n(CCC#N)c4c21)CNC3=O` [Go-6976] registered an AC50 cell viability with HCT116 [1] of 18.6 µM. In the test on HCT116 [2], the efficacy is -63%.
Taken in the same sequence, the figures for `COC1=CC=C2[N](CCCN(C)C)C=C(C2=C1)C/3=C(/C(=O)NC3=O)C4=C[NH]C5=C4C=CC=C5` [Go-6983] were 10.5 µM and -111%.
Compound `CN1CCN(C2CCN(C(=O)Nc3cc(Oc4ccc(NC(=O)C5(C(=O)Nc6ccc(F)cc6)CC5)c(F)c4)ccn3)CC2)CC1` [Golvatinib] registered an AC50 cell viability in the test on HCT116 [1] of 14.8 µM. Moreover, the efficacy in the test on HCT116 [2] is -93.6%.
The corresponding values for `O=[S+]([O-])(NCCNC/C=C/c1ccc(Br)cc1)c1cccc2cnccc12` [H-89] are 18.6 µM and -88.2%.
Taken in the same sequence, the figures for `O=C1S/C(=C\c2ccc(OCc3cccc(B(O)O)c3)cc2)C(=O)N1Cc1ccc(F)cc1` [HA-130] were 18.6 µM and -41.3%.
Compound `ONC(=O)C1=CC=C(C=C1)C/2=N/C3=CC=CC=C3OC4=C2C=CC=C4` [HDACi-01] came in with an AC50 cell viability in the test on HCT116 [1] of 2.95 µM. For the same compound, the efficacy in the test with HCT116 [2] is -85.9%.
For the compound `O=C(NO)c1cnc(N2C[C@H]3C[C@@H]2CN3c2cc(C(F)(F)F)ccn2)nc1` [HDACi-02], the AC50 cell viability with HCT116 [1] amounted to 1.48 µM. Besides, the efficacy in the test with HCT116 [2] is -86.6%.
The compound `CCN1CCN(Cc2ccc(NC(=O)c3ccc(C)c(/C=C/c4cnc5[nH]ccc5c4OC)c3)cc2C(F)(F)F)CC1` [HG-6-64-1] registered an AC50 cell viability in the test on HCT116 [1] of 2.95 µM. In addition, in the test with HCT116 [2], the efficacy is -96.2%.
`COCCOC(=O)C/1=C(C)/NC/2=C(C1C3=CC=CC(=C3)O)/C(=O)CC(C2)C4=C(OC)C=CC=C4` (stereo not given) [HPI-1] showed an AC50 cell viability with HCT116 [1] of 14.8 µM. Besides, in the test on HCT116 [2], the efficacy is -73.6%.
`COc1cccc(-c2cc(F)ccc2C2Cc3nc(N)nc(C)c3C(=O)N2)n1` (stereo not given) [HSP-990] had an AC50 cell viability with HCT116 [1] of 0.0525 µM. Also, in the test on HCT116 [2], the efficacy is -64.3%.
`CCCCN(CCCC)CCC(O)c1cc2c(Cl)cc(Cl)cc2c2cc(C(F)(F)F)ccc12.Cl` (stereo not given) [Halofantrine] had an AC50 cell viability in the test with HCT116 [1] of 20.9 µM. Further, the efficacy with HCT116 [2] is -66.6%.
The compound `CC[S+](=O)([O-])Nc1ccc2c(c1)/C(=C(/Nc1ccc(CN3CCCCC3)cc1)c1ccccc1)C(=O)N2` [Hesperadin] gave an AC50 cell viability with HCT116 [1] of 0.235 µM. In the test on HCT116 [2], the efficacy was -90.4%.
